Data as given in the supplement of paper PMC10307832.

What was measured:
Test in all cases: relative viability (nuclei count vs DMSO), 5 days (fraction); higher = more cells survive
Linifanib + Olaparib = compound: Cc1ccc(F)c(NC(=O)Nc2ccc(-c3cccc4[nH]nc(N)c34)cc2)c1 [Linifanib] + O=C(c1cc(Cc2n[nH]c(=O)c3ccccc23)ccc1F)N1CCN(C(=O)C2CC2)CC1 [Olaparib] (partner 8 µM)
Method in brief: (§1)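 A single step with final 0.05% Triton X-100, 1% formaldehyde and 1 ug/ml Hoechst fixed the cells and stained nuclei 5 days after treatment. Lung cancer cell lines in 1536-well plates had been treated by pin tool the day after seeding with one drug alone or a fixed anchor-drug dose plus five library-drug doses (not always all listed) in √10 steps, and nuclei were counted on 4× images. Relative viability is the ratio of nuclei in treated wells to nuclei in vehicle wells, taken as the median of duplicate plates.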

Linifanib + Luminespib = compound: Cc1ccc(F)c(NC(=O)Nc2ccc(-c3cccc4[nH]nc(N)c34)cc2)c1 [Linifanib] + CCNC(=O)c1noc(-c2cc(C(C)C)c(O)cc2O)c1-c1ccc(CN2CCOCC2)cc1 [Luminespib] (partner 0.01 µM)
Method in brief: as §1

Linifanib + Trametinib = compound: Cc1ccc(F)c(NC(=O)Nc2ccc(-c3cccc4[nH]nc(N)c34)cc2)c1 [Linifanib] + CC(=O)Nc1cccc(-n2c(=O)n(C3CC3)c(=O)c3c(Nc4ccc(I)cc4F)n(C)c(=O)c(C)c32)c1 [Trametinib] (partner 0.02 µM)
Method in brief: as §1

Linifanib + Decitabine = compound: Cc1ccc(F)c(NC(=O)Nc2ccc(-c3cccc4[nH]nc(N)c34)cc2)c1 [Linifanib] + Nc1ncn([C@H]2C[C@H](O)[C@@H](CO)O2)c(=O)n1 [Decitabine] (partner 2 µM)
Method in brief: as §1

Linifanib + Dasatinib = compound: Cc1ccc(F)c(NC(=O)Nc2ccc(-c3cccc4[nH]nc(N)c34)cc2)c1 [Linifanib] + Cc1nc(Nc2ncc(C(=O)Nc3c(C)cccc3Cl)s2)cc(N2CCN(CCO)CC2)n1 [Dasatinib] (partner 0.075 µM)
Method in brief: as §1

Linifanib + Vorinostat = compound: Cc1ccc(F)c(NC(=O)Nc2ccc(-c3cccc4[nH]nc(N)c34)cc2)c1 [Linifanib] + O=C(CCCCCCC(=O)Nc1ccccc1)NO [Vorinostat] (partner 1 µM)
Method in brief: as §1

Linifanib + Pemetrexed = compound: Cc1ccc(F)c(NC(=O)Nc2ccc(-c3cccc4[nH]nc(N)c34)cc2)c1 [Linifanib] + Nc1nc2[nH]cc(CCc3ccc(C(=O)N[C@@H](CCC(=O)O)C(=O)O)cc3)c2c(=O)[nH]1 [Pemetrexed] (partner 0.2 µM)
Method in brief: as §1

Linifanib + Tozasertib = compound: Cc1ccc(F)c(NC(=O)Nc2ccc(-c3cccc4[nH]nc(N)c34)cc2)c1 [Linifanib] + Cc1cc(Nc2cc(N3CCN(C)CC3)nc(Sc3ccc(NC(=O)C4CC4)cc3)n2)n[nH]1 [Tozasertib] (partner 0.1 µM)
Method in brief: as §1

Linifanib + OSI-027 = compound: Cc1ccc(F)c(NC(=O)Nc2ccc(-c3cccc4[nH]nc(N)c34)cc2)c1 [Linifanib] + COc1cccc2cc(-c3nc([C@H]4CC[C@H](C(=O)O)CC4)n4ncnc(N)c34)[nH]c12 [OSI-027] (partner 0.5 µM)
Method in brief: as §1

Linifanib + Phenformin = compound: Cc1ccc(F)c(NC(=O)Nc2ccc(-c3cccc4[nH]nc(N)c34)cc2)c1 [Linifanib] + N=C(N)NC(=N)NCCc1ccccc1 [Phenformin] (partner 250 µM)
Method in brief: as §1

Linifanib + AZD7762 = compound: Cc1ccc(F)c(NC(=O)Nc2ccc(-c3cccc4[nH]nc(N)c34)cc2)c1 [Linifanib] + NC(=O)Nc1cc(-c2cccc(F)c2)sc1C(=O)N[C@H]1CCCNC1 [AZD7762] (partner 0.2 µM)
Method in brief: as §1

Linifanib + Palbociclib = compound: Cc1ccc(F)c(NC(=O)Nc2ccc(-c3cccc4[nH]nc(N)c34)cc2)c1 [Linifanib] + CC(=O)c1c(C)c2cnc(Nc3ccc(N4CCNCC4)cn3)nc2n(C2CCCC2)c1=O [Palbociclib] (partner 0.5 µM)
Method in brief: as §1

Linifanib = compound: Cc1ccc(F)c(NC(=O)Nc2ccc(-c3cccc4[nH]nc(N)c34)cc2)c1 [Linifanib]
Method in brief: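 Viability here means nuclei in treated wells divided by nuclei in vehicle wells, reported as the median across plates. Only plates with control CV below 25% and at least one doubling passed. Lung cancer cell lines in 1536-well plates were exposed to five √10-spaced library-drug doses for 5 days and counted from 4× Hoechst images in MetaXpress.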

NCI-H522
relative viability (Linifanib + Olaparib; first compound 0.03162 µM): 0.555 | relative viability (Linifanib + Olaparib; first compound 0.1 µM): 0.693 | relative viability (Linifanib + Olaparib; first compound 0.3162 µM): 0.667 | relative viability (Linifanib + Luminespib; first compound 0.03162 µM): 1.18 | relative viability (Linifanib + Luminespib; first compound 0.1 µM): 0.98 | relative viability (Linifanib + Luminespib; first compound 0.3162 µM): 1.13 | relative viability (Linifanib + Trametinib; first compound 0.03162 µM): 0.643 | relative viability (Linifanib + Trametinib; first compound 0.1 µM): 0.713 | relative viability (Linifanib + Trametinib; first compound 0.3162 µM): 0.736 | relative viability (Linifanib + Decitabine; first compound 0.03162 µM): 0.613 | relative viability (Linifanib + Decitabine; first compound 0.1 µM): 0.703 | relative viability (Linifanib + Decitabine; first compound 0.3162 µM): 0.759 | relative viability (Linifanib + Dasatinib; first compound 0.03162 µM): 0.862 | relative viability (Linifanib + Dasatinib; first compound 0.1 µM): 0.868 | relative viability (Linifanib + Dasatinib; first compound 0.3162 µM): 0.871 | relative viability (Linifanib + Vorinostat; first compound 0.03162 µM): 0.851 | relative viability (Linifanib + Vorinostat; first compound 0.1 µM): 0.88 | relative viability (Linifanib + Vorinostat; first compound 0.3162 µM): 0.929 | relative viability (Linifanib + Pemetrexed; first compound 0.03162 µM): 0.945 | relative viability (Linifanib + Pemetrexed; first compound 0.1 µM): 0.798 | relative viability (Linifanib + Pemetrexed; first compound 0.3162 µM): 1.06 | relative viability (Linifanib + Tozasertib; first compound 0.03162 µM): 0.556 | relative viability (Linifanib + Tozasertib; first compound 0.1 µM): 0.542 | relative viability (Linifanib + Tozasertib; first compound 0.3162 µM): 0.474 | relative viability (Linifanib + OSI-027; first compound 0.03162 µM): 0.815 | relative viability (Linifanib + OSI-027; first compound 0.1 µM): 0.721 | relative viability (Linifanib + OSI-027; first compound 0.3162 µM): 0.719 | relative viability (Linifanib + Phenformin; first compound 0.03162 µM): 0.716 | relative viability (Linifanib + Phenformin; first compound 0.1 µM): 0.647 | relative viability (Linifanib + Phenformin; first compound 0.3162 µM): 0.551 | relative viability (Linifanib + AZD7762; first compound 0.03162 µM): 0.879 | relative viability (Linifanib + AZD7762; first compound 0.1 µM): 0.804 | relative viability (Linifanib + AZD7762; first compound 0.3162 µM): 0.809 | relative viability (Linifanib + Palbociclib; first compound 0.03162 µM): 1.05 | relative viability (Linifanib + Palbociclib; first compound 0.1 µM): 0.954 | relative viability (Linifanib + Palbociclib; first compound 0.3162 µM): 0.995 | relative viability (Linifanib; 0.03162 µM): 0.943 | relative viability (Linifanib; 0.1 µM): 1.02 | relative viability (Linifanib; 0.3162 µM): 0.995
